From article PMC12651750 (Cells, 2025)
Like-named read-outs stand apart in the source and are kept apart here.

Key:
[1] = molecular target: HDAC1 (Homo sapiens, UniProt Q13547); assay: In vitro HDAC enzymatic inhibition assay (HDAC kit, fluorescence)
Experimental: (§4) Enzymatic assays were performed by Shanghai ChemPartner according to the HDAC kit protocol. […] Fluorescence was recorded at 355 nm excitation and 460 nm emission on a Synergy MX reader (PerkinElmer Life Sciences, Boston, MA, USA). IC50 values were derived from dose–response curves.

[2] = molecular target: T1, HDAC6 (Homo sapiens, UniProt Q9UBN7); assay: as above
T1 sequence (Q9UBN7 1-1215): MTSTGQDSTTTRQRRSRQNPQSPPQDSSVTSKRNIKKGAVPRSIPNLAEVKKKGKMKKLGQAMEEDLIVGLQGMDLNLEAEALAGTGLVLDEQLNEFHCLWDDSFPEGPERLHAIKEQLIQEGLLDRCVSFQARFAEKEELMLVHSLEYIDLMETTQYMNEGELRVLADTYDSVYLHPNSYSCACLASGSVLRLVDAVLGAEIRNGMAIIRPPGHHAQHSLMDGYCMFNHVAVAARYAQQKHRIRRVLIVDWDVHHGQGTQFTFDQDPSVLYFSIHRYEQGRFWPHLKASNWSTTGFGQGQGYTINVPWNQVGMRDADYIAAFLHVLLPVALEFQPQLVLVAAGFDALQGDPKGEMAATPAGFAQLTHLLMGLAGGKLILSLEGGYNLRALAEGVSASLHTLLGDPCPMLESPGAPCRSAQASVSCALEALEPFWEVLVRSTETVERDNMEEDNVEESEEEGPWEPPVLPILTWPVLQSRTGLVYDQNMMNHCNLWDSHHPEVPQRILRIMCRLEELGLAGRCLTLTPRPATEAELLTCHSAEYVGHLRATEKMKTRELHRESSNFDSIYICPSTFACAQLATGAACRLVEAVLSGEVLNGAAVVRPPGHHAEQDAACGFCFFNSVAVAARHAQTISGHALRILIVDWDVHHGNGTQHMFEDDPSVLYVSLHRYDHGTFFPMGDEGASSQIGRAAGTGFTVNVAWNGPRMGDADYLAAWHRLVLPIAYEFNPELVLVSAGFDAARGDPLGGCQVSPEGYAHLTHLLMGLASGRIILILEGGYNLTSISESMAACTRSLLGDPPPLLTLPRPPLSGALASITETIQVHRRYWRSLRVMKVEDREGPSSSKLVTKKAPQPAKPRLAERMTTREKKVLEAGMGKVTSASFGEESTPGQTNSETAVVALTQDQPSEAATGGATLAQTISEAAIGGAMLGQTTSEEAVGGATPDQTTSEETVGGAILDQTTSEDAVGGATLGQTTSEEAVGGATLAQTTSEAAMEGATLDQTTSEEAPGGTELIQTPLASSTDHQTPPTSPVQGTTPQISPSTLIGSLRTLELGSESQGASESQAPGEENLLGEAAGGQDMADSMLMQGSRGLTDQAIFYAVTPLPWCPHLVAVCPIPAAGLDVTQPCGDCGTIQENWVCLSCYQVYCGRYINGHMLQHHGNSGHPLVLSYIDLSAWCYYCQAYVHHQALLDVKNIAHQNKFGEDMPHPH
Experimental: as §4

[3] = tested on: Jurkat, human leukemic T cell line; assay: Anti-proliferation MTT / CCK-8 assay; assay type: cell-based; details: Homo sapiens, Jurkat, 72 h
Experimental: These cells were purchased from the National Collection of Authenticated Cell Cultures (Shanghai, China).
(§1) The concentration of the cell suspension was adjusted to the appropriate concentration with fresh medium (the number of cells was about 30–40% of the bottom area of the well plate). 150 μL (about 1 × 10^4 cells) of prepared cell suspension containing different concentrations of NBU-2 were added to a 96-microtiter plate, and 3 replicate wells were set up for each concentration. If the cells were adherent, the cells were first allowed to grow overnight in 96 microtiter plates until the cells were adherent, and then the old medium was replaced with the drug-containing medium. The plates were incubated in a 5% CO2 cell incubator at 37 °C for 72 h. Then, 15 μL of MTT solution was added to each well, 100 μL of 10% SDS solution (pH = 2) was added after 4 h, and the plate was incubated at 37 °C with 5% CO2 overnight to fully dissolve the crystals.
(§2) The cells (about 1 × 10^4 cells) were treated with different concentrations of NBU-2 and DMSO control for different times (24 h, 48 h, 72 h), with 3 replicate wells for each concentration. Incubate at 37 °C in a 5% CO2 cell culture incubator. After a predetermined time, 10 μL of CCK-8 was added to each well and incubated for 2 h. The absorbance was measured at the excitation wavelength of 450 nm.

[4] = tested on: 4T1, mouse breast cancer cell line; assay: Anti-proliferation MTT / CCK-8 assay; assay type: cell-based; details: 72 h
From the text: (§3) K562, human erythroleukemia line; HL-60, human leukemic cell line; Jurkat, human leukemic T cell line; CCRF-CEM, human leukemic lymphoblasts; U937, human histiocytic lymphoma; HCT-116, human colorectal cancer cell line; A549, human lung cancer cell line; Hep G2, human hepatoma cell lines; MDA-MB-231, MCF-7, human breast cancer cell line; 4T1, mouse breast cancer cell line; PC12, pheochromocytoma of the rat adrenal medulla; HUVEC, human umbilical vein endothelial cells. These cells were purchased from the National Collection of Authenticated Cell Cultures (Shanghai, China).
as §1, with “crystals. Finally, the absorbance value of each well was measured at 570 and 655 nm.” for “crystals.”
as §2

[5] = tested on: A549, human lung cancer cell line; assay: Anti-proliferation MTT / CCK-8 assay; assay type: cell-based; details: A549, read-out: IC50 proliferation A549, heading: IC50 proliferation A549, 72 h, mean ± SEM of three independent assays
From the text: as §3
as §1, with “crystals. Finally, the absorbance value of each well was measured at 570 and 655 nm.” for “crystals.”
as §2

[6] = tested on: CCRF-CEM, human leukemic lymphoblasts; assay: Anti-proliferation MTT / CCK-8 assay; assay type: cell-based; details: read-out: IC50 proliferation CCRF-CEM, heading: IC50 proliferation CCRF-CEM, 72 h, mean ± SEM of three independent assays
From the text: as §3
as §1, with “crystals. Finally, the absorbance value of each well was measured at 570 and 655 nm.” for “crystals.”
as §2

[7] = tested on: HCT-116, human colorectal cancer cell line; assay: Anti-proliferation MTT / CCK-8 assay; assay type: cell-based; details: HCT-116, read-out: IC50 proliferation HCT-116, heading: IC50 proliferation HCT-116, 72 h, mean ± SEM of three independent assays
From the text: as §3
as §1, with “crystals. Finally, the absorbance value of each well was measured at 570 and 655 nm.” for “crystals.”
as §2

[8] = tested on: HL-60, human leukemic cell line; assay: Anti-proliferation MTT / CCK-8 assay; assay type: cell-based; details: HL-60, read-out: IC50 proliferation HL-60, heading: IC50 proliferation HL-60, 72 h, mean ± SEM of three independent assays
From the text: as §3
as §1, with “crystals. Finally, the absorbance value of each well was measured at 570 and 655 nm.” for “crystals.”
as §2

[9] = tested on: Hep G2, human hepatoma cell lines; assay: Anti-proliferation MTT / CCK-8 assay; assay type: cell-based; details: HepG2, read-out: IC50 proliferation HepG2, heading: IC50 proliferation HepG2, 72 h, mean ± SEM of three independent assays
From the text: as §3
as §1, with “crystals. Finally, the absorbance value of each well was measured at 570 and 655 nm.” for “crystals.”
as §2

[10] = tested on: K562, human erythroleukemia line; assay: Anti-proliferation MTT / CCK-8 assay; assay type: cell-based; details: K562, read-out: IC50 proliferation K562, heading: IC50 proliferation K562, 72 h, mean ± SEM of three independent assays
From the text: as §3
as §1, with “crystals. Finally, the absorbance value of each well was measured at 570 and 655 nm.” for “crystals.”
as §2

[11] = tested on: MDA-MB-231, human breast cancer cell line; assay: Anti-proliferation MTT / CCK-8 assay; assay type: cell-based; details: MDA-MB-231, read-out: IC50 proliferation MDA-MB-231, heading: IC50 proliferation MDA-MB-231, 72 h, mean ± SEM of three independent assays
From the text: as §3
as §1, with “crystals. Finally, the absorbance value of each well was measured at 570 and 655 nm.” for “crystals.”
as §2

[12] = tested on: PC12, pheochromocytoma of the rat adrenal medulla; assay: Anti-proliferation MTT / CCK-8 assay; assay type: cell-based; details: PC-12, 72 h
From the text: as §3
as §1, with “crystals. Finally, the absorbance value of each well was measured at 570 and 655 nm.” for “crystals.”
as §2

[13] = tested on: U937, human histiocytic lymphoma; assay: Anti-proliferation MTT / CCK-8 assay; assay type: cell-based; details: U-937, read-out: IC50 proliferation U937, heading: IC50 proliferation U937, 72 h, mean ± SEM of three independent assays
From the text: as §3
as §1, with “crystals. Finally, the absorbance value of each well was measured at 570 and 655 nm.” for “crystals.”
as §2

HDAC1, sequence (Q13547 whole entry): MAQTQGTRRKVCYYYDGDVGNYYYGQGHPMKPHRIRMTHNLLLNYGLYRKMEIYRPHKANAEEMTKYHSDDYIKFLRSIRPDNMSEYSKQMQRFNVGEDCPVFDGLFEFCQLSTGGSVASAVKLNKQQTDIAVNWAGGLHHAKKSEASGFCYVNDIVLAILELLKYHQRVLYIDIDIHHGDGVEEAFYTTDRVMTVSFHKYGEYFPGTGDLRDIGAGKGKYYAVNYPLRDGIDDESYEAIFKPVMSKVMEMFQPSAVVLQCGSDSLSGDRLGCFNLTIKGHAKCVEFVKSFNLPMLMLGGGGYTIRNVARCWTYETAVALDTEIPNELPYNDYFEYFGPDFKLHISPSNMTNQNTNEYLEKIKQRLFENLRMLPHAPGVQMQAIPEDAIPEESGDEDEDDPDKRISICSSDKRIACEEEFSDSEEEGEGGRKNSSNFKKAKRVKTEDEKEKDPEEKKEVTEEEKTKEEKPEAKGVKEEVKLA

Row | IC50 [1] [nM] | IC50 [2] [nM] | IC50 ([3]; read-out: IC50 against Jurkat cells) [nM] | IC50 ([3]; read-out: IC50 proliferation Jurkat, heading: IC50 proliferation Jurkat, mean ± SEM of three independent assays) [nM] | IC50 [4] [nM] | IC50 [5] [nM] | IC50 [6] [nM] | IC50 [7] [nM] | IC50 [8] [nM] | IC50 [9] [nM] | IC50 [10] [nM] | IC50 [11] [nM] | IC50 [12] [nM] | IC50 [13] [nM] | Structure (SMILES)
1 | 242 ± 15 | 114 ± 28 | – | – | – | – | – | – | – | – | – | – | – | – | O=C(NO)c1ccc(CNc2ccnc3ccccc23)cc1 [NBU-1, N-hydroxy-4-((quinolin-4-ylamino)methyl)benzamide]
2 | – | – | 2230 | 2230 ± 220 | > 50 | > 50000 | 1660 ± 340 | 3860 ± 1090 | 860 ± 70 | 500 ± 20 | 1650 ± 640 | 9750 ± 1780 | > 50 | 1310 ± 380 | Nc1cc(F)ccc1NC(=O)c1ccc(CNC(=O)/C=C/c2cccnc2)cc1 [Chidamide, reference compound]
